Laboratory results: patent US10231456B2, “Methods and compositions for controlling weed infestation and improving grass quality” (BAYER CROPSCIENCE LP, priority 2012, dated 2019)

What was measured:
dallisgrass = test: Post-emergence field plot test, % damage to natural dallisgrass infestation; type: in vivo, dallisgrass (Paspalum dilatatum); conditions: with non-ionic surfactant, rates g/ha foram 28.78, TCM 15, halo 69.9; for Trial 1 (16 WAT) % damage: 16 weeks after treatment; for Trial 2 (42 DAA) % damage: 42 days after application; for Trial 3 (48 DAA) % damage: 48 days after application
From the text: Plots approximately 2-4.6 m^2 in size are contain a natural infestion of the weed dallisgrass. Using a CO2 propelled backpack sprayer, thiencarbazone-methyl (TCM), foramsulfuron (foram), and halosulfuron-methyl (halo) are applied on their own and in a combination, by post-emergence method, to the dallisgrass, at the application rates specified. The application rates for each compound and combination are equivalent to each other. All treatments included a non-ionic surfactant. After 42 days, 48 days, and 16 weeks after treatment, the degree of damage to the plants is rated in % damage in comparison to the development of the untreated control.
(§1) The FIGURES denote: • 0%=no effect (like untreated control) • 100%=total destruction.

Tall Fescue = test: Glasshouse post-emergence test, % damage to Tall Fescue; type: in vivo, tall fescue (Schedonorus phoenix/Festuca arundinacea); conditions: NIS 0.25 % V/V
From the text: Glasshouse plots approximately 1.1 m^2 in size are planted with the weed Tall Fescue. Using a 1 nozzle motorized track sprayer, thiencarbazone-methyl (BYH18636), foramsulfuron (Revolver●), and halosulfuron-methyl (Sedgehammer●) are applied on their own and in combination with each other (a combination of thiencarbazone-methyl, foramsulfuron, and halosulfuron-methyl is SP 102000025052), by post-emergence method, to the weed Tall Fescue, at the application rates specified. The application rates for each compound and combination are equivalent to each other.
After 14 and 27 days after treatment, the degree of damage to the plants is rated in % damage in comparison to the development of the untreated control.
as §1

[1] = higher rates: TCM 22.2, foram 44.37, halo 69 G A/HA (blend 135.6 G A/HA, 3.2 OZ/A)
[2] = lower rates: TCM 14.58, foram 29.12, halo 45.3 G A/HA (blend 89 G A/HA, 2.1 OZ/A)

Row | SMILES | Trial 1 (16 WAT) % damage (dallisgrass) [%] | Trial 2 (42 DAA) % damage (dallisgrass) [%] | Trial 3 (48 DAA) % damage (dallisgrass) [%] | 0 DAA % damage (Tall Fescue; [1]) [%] | 0 DAA % damage (Tall Fescue; [2]) [%] | 14 DAA % damage (Tall Fescue; [1]) [%] | 14 DAA % damage (Tall Fescue; [2]) [%] | 27 DAA % damage (Tall Fescue; [1]) [%] | 27 DAA % damage (Tall Fescue; [2]) [%]
1 | COc1cc(OC)nc(NC(=O)NS(=O)(=O)c2cc(NC=O)ccc2C(=O)N(C)C)n1 [foramsulfuron] | 31.5 | 76.7 | 35 | – | – | – | – | – | –
2 | COC(=O)c1c(Cl)nn(C)c1S(=O)(=O)NC(=O)Nc1nc(OC)cc(OC)n1 [halosulfuron-methyl] | 0 | 0 | −9 | – | – | – | – | – | –
3 | COC(=O)c1csc(C)c1S(=O)(=O)NC(=O)n1nc(OC)n(C)c1=O [thiencarbazone-methyl] | 85.25 | 65 | 51 | 0 | 0 | 42.5 | 26.3 | 75 | 52.5
